Assay results as given in US20260034146A1, “NEUROACTIVE 19-ALKOXY-17-S[…], PRODRUGS THEREOF, AND METHODS OF TREATMENT USING SAME” (priority 2012, published 2026).

Tests used:
[1] = biological target: picrotoxin binding site on GABAA receptors; assay: [35S]-TBPS displacement (inhibition of [35S]-TBPS binding); conditions: duplicate experiments performed in triplicate; ± standard error of the mean
Method: The IC50 values for non-competitive displacers of [^35S]-TBPS from the picrotoxin binding site on GABAA receptors are reported in Table 1.
^aResults presented are from duplicate experiments performed in triplicate. Error limits are calculated as standard error of the mean. Methods used are known in the art (see Jiang, X., et al., Neurosteroid analogues. 9. Conformationally constrained pregnanes: structure-activity studies of 13,24-cyclo-18,21-dinorcholane analogues of the GABA modulatory and anesthetic steroids (3α,5α)- and […]. J. Med. Chem., 46: 5334-48 (2003)—the contents of which are hereby incorporated by reference in their entirety).

[2] = biological target: rat α1β2γ2L type GABAA receptors expressed in Xenopus laevis oocytes (Rattus norvegicus (Rat), UniProt P62813+P63138, INS375LLRMFSFK); assay: Oocyte electrophysiology: potentiation of chloride currents mediated by 2 μM GABA, and direct gating; assay type: cell-based; conditions: ± SEM; for oocyte electrophysiology, ratio of currents in presence/absence of compound, 0.1 μM: 0.1 μM compound; for oocyte electrophysiology, ratio of currents in presence/absence of compound, 0.1 μM / oocyte electrophysiology, ratio of currents in presence/absence of compound, 1 μM / oocyte electrophysiology, ratio of currents in presence/absence of compound, 10 μM: 2 μM GABA control, N≥4 oocytes; for oocyte electrophysiology, ratio of currents in presence/absence of compound, 1 μM: 1 μM compound; for oocyte electrophysiology, ratio of currents in presence/absence of compound, 10 μM: 10 μM compound; for (gating) 10 μM, ratio of compound only current/2 μM GABA current: direct current gated by 10 μM compound in the absence of GABA, N≥4
Method: The compounds of the present disclosure were evaluated for the ability to potentiate chloride currents mediated by 2 μM GABA at rat α1β2γ2L type GABAA receptors expressed in Xenopus laevis oocytes and the results are shown in Table 2.
The GABA concentration used for the control response was 2 μM. Each compound was evaluated on at least four different oocytes at the concentrations indicated, and the results reported are the ratio of currents measured in the presence/absence of added compound. Gating represents direct current gated by 10 μM compound in the absence of GABA, and this current is reported as the ratio of compound only current/2 μM GABA current. Error limits are calculated as standard error of the mean (N≥4). Methods used are known in the art (see Jiang, X., et al.).

Tadpole = Tadpole loss of righting reflex (LRR) and loss of swimming reflex (LSR); assay type: in vivo; conditions: N=10 or more animals at each of five or more concentrations, ± SEM; for Tadpole LSR EC50 (μM): loss of swimming reflex; for Tadpole LRR EC50 (μM): loss of righting reflex
Method: Table 3 discloses the anesthetic effects of the compounds of the present disclosure. In particular, the anesthetic effect of the compounds of the present disclosure on Loss of Righting Reflex (LRR) and Loss of Swimming Reflex (LSR).
Methods used are known in the art (see Jiang, X., et al.). Error limits are calculated as standard error of the mean (N=10 or more animals at each of five or more different concentrations).

male Sprague Dawley rats = assay: Rat loss of righting reflex (LRR), intravenous bolus; assay type: in vivo
Method: The plasma pharmacokinetics and a qualitative assessment of sedation were obtained in male Sprague Dawley rats according to the following procedure. Rats were dosed by intravenous bolus dose (60 seconds) via the foot dorsal vein at doses ranging from 5 to 15 mg/kg in an appropriate vehicle. In order to assess sedation, rats were gently restrained by hand to a lateral position for dose administration. […] If the animal was unable to return to an upright position, the time was recorded as the onset of loss of righting reflex (LRR). […] Sluggish or incomplete righting twice consecutively within a 30 second interval qualifies as a loss of righting reflex. After onset of LRR, animals were assessed every 5 minutes in the same manner. Recovery of righting reflex is defined as the ability of a rat to right itself completely within 20 seconds of being placed in dorsal recumbency. The duration of LRR is defined as the time interval between LRR and the return of righting reflex.

male beagle dogs = assay: Dog duration of lateral recumbence, intravenous bolus; assay type: in vivo; conditions: dog dose 5 mg/kg
Method: The plasma pharmacokinetics and a qualitative assessment of sedation were obtained in male beagle dogs according to the following procedure. Dogs were dosed by intravenous bolus dose (60 seconds) via the cephalic vein at 5 mg/kg dose in an appropriate vehicle. In order to assess sedation, dogs were gently restrained for dose administration. If decreased muscle tone, limb weakness, or head drop was observed during dose administration, onset of lateral recumbence was recorded. […] Sluggish or incomplete righting to the sternal position qualifies as lateral recumbence. After onset of lateral recumbence, animals were assessed every 5 minutes in the same manner. The duration of lateral recumbence was recorded as the time interval between onset of lateral recumbence and the return to sternal position.

| SMILES | IC50 [1] | oocyte electrophysiology, ratio of currents in presence/absence of compound, 0.1 μM [2] | oocyte electrophysiology, ratio of currents in presence/absence of compound, 1 μM [2] | oocyte electrophysiology, ratio of currents in presence/absence of compound, 10 μM [2] | (gating) 10 μM, ratio of compound only current/2 μM GABA current [2] | Tadpole LSR EC50 (μM) (Tadpole) | Duration of Rat LRR (male Sprague Dawley rats; rat dose 15 mg/kg) | Duration of Dog Lateral Recumbence (male beagle dogs) | Duration of Rat LRR (male Sprague Dawley rats; rat dose 5 mg/kg) | Tadpole LRR EC50 (μM) (Tadpole) |
| --- | --- | --- | --- | --- | --- | --- | --- | --- | --- | --- |
| COC[C@]12CCC(O)CC1CC[C@@H]1[C@@H]2CC[C@]2(C)C(=O)CC[C@@H]12 (stereo in doubt) [30, MQ-94, (3α,5β)-3-Hydroxy-19-methoxyandrostan-17-one] | > 30000 nM | 0.90 ± 0.02 | 0.88 ± 0.01 | 0.84 ± 0.02 | 0.03 | None |  |  |  |  |
| COC[C@]12CCC(=O)C[C@@H]1CC[C@H]1[C@@H]3CC[C@H](OC)[C@@]3(C)CC[C@@H]12 [7, MQ-88, (5α,17β)-17,19-Dimethoxyandrostan-3-one] | 8700 nM | 1.00 ± 0 | 0.85 ± 0.01 | 1.07 ± 0.02 | 0.04 ± 0.03 |  |  |  |  |  |
| COC[C@]12CC[C@@H](O)C[C@@H]1CC[C@H]1[C@@H]3CC[C@H](OC)[C@@]3(C)CC[C@@H]12 [8, MQ-89, (5α,17β)-17,19-Dimethoxyandrostan-3-ol] | 56 ± 2 nM | 1.65 ± 0.08 | 7.63 ± 0.77 | 20.9 ± 2.73 | 0.22 ± 0.01 |  | C (C >20 min) | C (C >20 min) |  |  |
| COC[C@]12CC[C@@H](O)C[C@@H]1CC[C@@H]1[C@@H]2CC[C@@]2(C)[C@H]1CC[C@@]21CO1 [12, MQ-90, (3α,5α,17β)-19-Methoxyspiro[androstane-17,2′-oxiran]-3-ol] | 79 ± 4 nM | 1.24 ± 0.05 | 7.40 ± 1.43 | 18.7 ± 6.19 | 0.14 ± 0.04 |  |  |  |  |  |
| COC[C@]12CC[C@@H](O)C[C@@H]1CC[C@@H]1[C@@H]2CC[C@]2(C)C(C#N)=CC[C@@H]12 [15, MQ-91, (3α,5α)-3-Hydroxy-19-methoxyandrost-16-ene-17-carbonitrile] | 118 ± 13 nM | 1.27 ± 0.13 | 5.34 ± 0.86 | 25.6 ± 3.23 | 0.10 ± 0.09 |  |  |  |  |  |
| COC[C@]12CC[C@@H](O)C[C@@H]1CC[C@H]1[C@@H]3CC[C@H](C#N)[C@@]3(C)CC[C@@H]12 [16, MQ-92, (3α,5α,17β)-3-Hydroxy-19-methoxyandrostane-17-carbonitrile] | 63 ± 7 nM | 1.52 ± 0.02 | 9.79 ± 0.53 | 25.7 ± 2.11 | 0.25 ± 0.11 |  |  | B (B 10-20 min) | B (B 10-20 min) |  |
| COC[C@]12CC[C@@H](O)C[C@@H]1CC[C@H]1[C@@H]3CC[C@H](C(C)=O)[C@@]3(C)CC[C@@H]12 [17, MQ-93, (3α,5α)-3-Hydroxy-19-methoxypregnan-20-one] | 47 ± 4 nM | 2.15 ± 0.19 | 12.8 ± 1.74 | 33.8 ± 5.44 | 0.23 ± 0.07 |  | C (C >20 min) |  |  |  |
| COC[C@]12CC[C@@H](O)C[C@@H]1CC[C@H]1[C@@H]3CC[C@H](C(=O)CO)[C@@]3(C)CC[C@@H]12 [20, MQ-98, (3α,5α)-3,21-Dihydroxy-19-methoxypregnan-20-one] | 345 ± 61 nM | 0.98 ± 0.01 | 2.76 ± 0.27 | 19.0 ± 2.31 | 0.09 ± 0.05 |  | A (A <10 min) |  |  |  |
| COC[C@]12CCC(=O)C=C1CC[C@@H]1[C@@H]2CC[C@]2(C)[C@@H](OC)CC[C@@H]12 [24, MQ-99, (17β)-17,19-Dimethoxyandrost-4-en-3-one] | 14500 nM | 0.88 ± 0.08 | 0.63 ± 0.06 | 1.06 ± 0.17 | 0.11 ± 0.17 | None |  |  |  | None |
| COC[C@]12CC[C@@H](O)CC1=CC[C@@H]1[C@@H]2CC[C@]2(C)[C@@H](OC)CC[C@@H]12 [25, MQ-101, (3α,17β)-17,19-Dimethoxyandrost-5-en-3-ol] | 583 ± 71 nM | 0.94 ± 0.07 | 1.97 ± 0.08 | 15.7 ± 0.90 | 0.08 ± 0.07 |  |  |  |  |  |
| COC[C@]12CC[C@H](O)CC1=CC[C@@H]1[C@@H]2CC[C@]2(C)[C@@H](OC)CC[C@@H]12 [26, MQ-100, (3β,17β)-17,19-Dimethoxyandrost-5-en-3-ol] | 17800 nM | 0.83 ± 0.03 | 0.76 ± 0.02 | 0.78 ± 0.02 | 0.02 ± 0.02 | None |  |  |  | None |
| COC[C@]12CC[C@@H](O)C[C@@H]1CC[C@H]1[C@@H]3CC[C@H]([N+](=O)[O-])[C@@]3(C)CC[C@@H]12 [29, MQ-97, (3α,5α,17β)-19-methoxy-17-nitroandrostan-3-ol] | 37 ± 4 nM | 2.07 ± 0.09 | 15.7 ± 1.45 | 26.6 ± 4.34 | 0.11 ± 0.01 |  | B (B 10-20 min) | C (C >20 min) |  |  |
| COC[C@]12CC[C@H](O)C[C@@H]1CC[C@H]1[C@@H]3CC[C@H](OC)[C@@]3(C)CC[C@@H]12 [31, MQ-96, (3β,5α,17β)-17,19-Dimethoxyandrostan-3-ol] | 7800 nM | 0.91 ± 0.02 | 0.97 ± 0.05 | 1.10 ± 0.05 | 0.02 ± 0 |  |  |  |  |  |
